Laboratory results as given in PMC5122387 (2016).

Experiments:
Assay in all cases: Dox fluorescence quenching
[1] = tested on: DNA tetrahedron (Td) (DNA, other) ACATTCCTAAGTCTGAAACATTACAGCTTGCTACACGAGAAGAGCCGCCATAGTA/TATCACCAGGCAGTTGACAGTGTAGCAAGCTGTAATAGATGCGAGGGTCCAATAC/TCAACTGCCTGGTGATAAAACGACACTACGTGGGAATCTACTATGGCGGCTCTTC/TTCAGACTTAGGAATGTGCTTCCCACGTAGTGTCGTTTGTATTGGACCCTCGCAT; conditions: not stated for assay; assembled in 50 mM MgCl2; 3 nM Dox; complete quenching at DNA:Dox molar ratio 0.05; Td assembled in 20 mM Tris-HCl, pH 8.0
[2] = tested on: Apt-Td (aptamer-tetrahedron complex) (DNA, other) AGGAAGAGAGAAGGAAGGGAATTTTTACATTCCTAAGTCTGAAACATTACAGCTTGCTACACGAGAAGAGCCGCCATAGTA/TATCACCAGGCAGTTGACAGTGTAGCAAGCTGTAATAGATGCGAGGGTCCAATAC/TCAACTGCCTGGTGATAAAACGACACTACGTGGGAATCTACTATGGCGGCTCTTC/TTCAGACTTAGGAATGTGCTTCCCACGTAGTGTCGTTTGTATTGGACCCTCGCAT/TTCCCTTCCTTCTCTCTTCCTCTCTCGCAGTTGATCCTTTGGATACCCTG; conditions: not stated for assay; assembled in 50 mM MgCl2; 3 nM Dox; complete quenching at DNA:Dox molar ratio 0.04; assembled in 20 mM Tris-HCl, pH 8.0
[3] = tested on: MUC1 aptamer (Apt) (DNA, aptamer) GCAGTTGATCCTTTGGATACCCTGG; conditions: not stated; 3 nM Dox; complete quenching at DNA:Dox molar ratio 1; buffer not stated

binding [1]: yes
binding [2]: yes
binding [3]: yes
Compound: COc1cccc2c1C(=O)c1c(O)c3c(c(O)c1C2=O)C[C@@](O)(C(=O)CO)C[C@@H]3O[C@H]1C[C@H](N)[C@H](O)[C@H](C)O1
